In US12016858B2, “Methods for the treatment of abnormal involuntary movement disorders” (AUSPEX PHARMACEUTICALS, INC., priority 2015, dated 2024):

System: subjects with manifest HD, chorea
Test: ARC-HD open-label, single-arm study (Rollover and Switch cohorts)
Assay type: in vivo, human
Source text: In a second clinical trial, a method for converting patients with adequate control of chorea with tetrabenazine to deutetrabenazine treatment was implemented. Alternatives for Reducing Chorea in Huntington Disease (ARC-HD) was an open-label, single-arm study in which subjects with manifest HD who were receiving FDA-approved doses of tetrabenazine for the treatment of chorea or had successfully completed First-HD were invited to participate. The study thus comprised two cohorts. […] Other key inclusion criteria for the study included: diagnosed with manifest HD, as indicated by characteristic motor examination features; a documented expanded cytosine adenine guanine (CAG) repeat (≥37) and Total Functional Capacity (TFC) score ≥5 at or before Screening; able to ambulate without assistance for at least 20 yards ([…] devices such as walker or cane permitted); and subject has a reliable caregiver who interacts with the subject on a daily basis, oversees study drug administration, assures attendance at study visits, and participates in evaluations, as required. Key exclusion criteria included serious untreated or undertreated psychiatric illness (e.g., depression) at Screening or Baseline; concomitant dopamine receptor antagonists, dopamine agonists, levodopa, reserpine, N-methyl-D-aspartate receptor antagonists, or monoamine oxidase inhibitors within 30 days of Screening or Baseline; and score ≥11 on the depression subscale of the Hospital Anxiety and Depression Scale (HADS), a score of ≥11 on the Swallowing Disturbance Questionnaire (SDQ), or a Unified Parkinson's Disease Rating Scale (UPDRS) dysarthria score of ≥3 at Screening or Baseline. The guidance for investigators on conversion of subjects from stable doses of tetrabenazine to deutetrabenazine in the ARC-HD Switch study was designed to minimize the risk that dose conversion would result in either loss of efficacy or increased adverse events. The conversion method applied was based on modeling and simulation of Phase 1 pharmacokinetic data for deutetrabenazine and tetrabenazine. The objective of the pharmacokinetic analysis was to identify an initial dosing regimen of deutetrabenazine predicted to provide exposure at steady state of the active α and β metabolites that was less than or equal to the predicted AUC at steady state of the active alpha and beta metabolites of tetrabenazine, but with a lower Cmax. Subjects in the Switch cohort completed a full screening evaluation. […] Subjects received existing tetrabenazine regimen through midnight of Day 0 and switched to their assigned deutetrabenazine regimen the next morning (Day 1 of the study). […] The investigator, in consultation with the subject and caregiver, determined when an adequate level of chorea control had been achieved. If a subject experienced a “clinically significant” adverse event attributable to deutetrabenazine, the investigator determined if a dose reduction or suspension was necessary. […] The deutetrabenazine dose for these subjects was titrated from a starting dose of 6 mg per day to a dose that controlled chorea and was well tolerated. For both cohorts, oral tablets at strengths of 6 mg, 9 mg, and 12 mg were used. Doses of 12 mg and higher were administered in two divided doses approximately 10 hours apart. All study treatment regimens were administered orally with meals. The maximum total daily dose of deutetrabenazine was set at 72 mg per day, unless the subject was receiving a strong CYP2D6 inhibitor (e.g., paroxetine), in which case the maximum total daily dose was 36 mg. Subjects attended regular clinic visits to evaluate safety and establish an optimal dose. The investigator, in consultation with the subject and caregiver, determined when an adequate level of chorea control was achieved; the dose of DTBZ could be increased on a weekly basis until there was adequate control of chorea, the subject experienced a protocol defined clinically significant adverse event, or the maximal allowable dose was reached. […]

SMILES: [2H]C([2H])([2H])Oc1cc2c(cc1OC([2H])([2H])[2H])C1CC(=O)C(CC(C)C)CN1CC2 (stereo not drawn) [deutetrabenazine, (RR, SS)-1,3,4,6,7,11b-hexahydro-9,10-di(methoxy-d3)-3-(2-methylpropyl)-2H-benzo[a]quinolizin-2-one]
- subjects who experienced AEs (Rollover Cohort): 39 (52.0%) n (%)
- subjects who experienced serious AEs (Rollover Cohort): Three
- subjects with an AE that led to a dose reduction or dose suspension (Rollover Cohort): Five
- TEAE Anxiety (Rollover Cohort (N = 75)): 3 (4.0) n (%)
- TEAE Constipation (Rollover Cohort (N = 75)): 3 (4.0) n (%)
- TEAE Depression (Rollover Cohort (N = 75)): 8 (10.7) n (%)
- TEAE Diarrhoea (Rollover Cohort (N = 75)): 4 (5.3) n (%)
- TEAE Disorientation (Rollover Cohort (N = 75)): 0 n (%)
- TEAE Dry mouth (Rollover Cohort (N = 75)): 3 (4.0) n (%)
- TEAE Fall (Rollover Cohort (N = 75)): 10 (13.3) n (%)
- TEAE Fatigue (Rollover Cohort (N = 75)): 3 (4.0) n (%)
- TEAE Insomnia (Rollover Cohort (N = 75)): 6 (8.0) n (%)
- TEAE Irritability (Rollover Cohort (N = 75)): 3 (4.0) n (%)
- TEAE Nasopharyngitis (Rollover Cohort (N = 75)): 2 (2.7) n (%)
- TEAE Sleep disorder (Rollover Cohort (N = 75)): 3 (4.0) n (%)
- TEAE Somnolence (Rollover Cohort (N = 75)): 6 (8.0) n (%)
- TEAE Vomiting (Rollover Cohort (N = 75)): 3 (4.0) n (%)
- subjects who experienced AEs (Rollover Cohort, Day 1 through Week 8): 45.3%
- TMC mean (SD) decrease from baseline (Rollover Cohort, Week 2): 1.9 (3.0) units
- Total Maximal Chorea Score, Mean (SD) Change from Baseline (Rollover Cohort, Week 2): −1.9 (2.95)
- Total Maximal Chorea Score, Mean (SD) Score (Rollover Cohort, Week 2): 10.1 (3.41)
- Total Motor Score, Mean (SD) Change from Baseline (Rollover Cohort, Week 2): −3.9 (6.67)
- Total Motor Score, Mean (SD) Score (Rollover Cohort, Week 2): 32.4 (15.23)
- mean decrease in TMS from baseline (Rollover Cohort, Week 2): 3.9 units
- Total Maximal Chorea Score, Mean (SD) Change from Baseline (Rollover Cohort, Week 4): −2.5 (3.21)
- Total Maximal Chorea Score, Mean (SD) Score (Rollover Cohort, Week 4): 9.8 (3.69)
- Total Motor Score, Mean (SD) Change from Baseline (Rollover Cohort, Week 4): −5.9 (7.88)
- Total Motor Score, Mean (SD) Score (Rollover Cohort, Week 4): 32.1 (16.84)
- Total Maximal Chorea Score, Mean (SD) Change from Baseline (Rollover Cohort, Week 8): −4.5 (3.34)
- Total Maximal Chorea Score, Mean (SD) Score (Rollover Cohort, Week 8): 7.9 (3.91)
- Total Motor Score, Mean (SD) Change from Baseline (Rollover Cohort, Week 8): −8.3 (8.58)
- Total Motor Score, Mean (SD) Score (Rollover Cohort, Week 8): 31.0 (18.07)
- subjects who experienced AEs (Rollover Cohort, Week 8 through the visit cut-off date): 43.2%
- TMC mean (SD) decrease from baseline (Rollover Cohort, Week 15): 4.5 (5.0) units
- Total Maximal Chorea Score, Mean (SD) Score (Rollover Cohort, Week 15): 7.9 (4.05)
- Total Motor Score, Mean (SD) Change from Baseline (Rollover Cohort, Week 15): −8.0 (8.41)
- Total Motor Score, Mean (SD) Score (Rollover Cohort, Week 15): 30.5 (17.70)
- mean decrease in TMS from baseline (Rollover Cohort, Week 15): 8.0 units
- Total Motor Score, Mean (SD) Change from Baseline (Rollover Cohort, Week 15, listed as DTBZ): −8.0
- subjects with AEs assessed as mild or moderate in intensity (Rollover Cohort, of the 39 subjects with AEs): 36 (92.3%) n (%)
- tolerability (Rollover and Switch Cohorts): generally well tolerated
- subjects who experienced at least one AE (Switch Cohort): 21 (56.8%) n (%)
- subjects who experienced serious AEs (Switch Cohort): Two
- subjects with an AE that led to a dose reduction or dose suspension (Switch Cohort): four
- withdrawal from the study due to an AE (Switch Cohort): no subjects withdrew
- TEAE Anxiety (Switch Cohort (N = 37)): 3 (8.1) n (%)
- TEAE Constipation (Switch Cohort (N = 37)): 2 (5.4) n (%)
- TEAE Diarrhoea (Switch Cohort (N = 37)): 2 (5.4) n (%)
- TEAE Disorientation (Switch Cohort (N = 37)): 2 (5.4) n (%)
- TEAE Dry mouth (Switch Cohort (N = 37)): 2 (5.4) n (%)
- TEAE Fall (Switch Cohort (N = 37)): 3 (8.1) n (%)
- TEAE Fatigue (Switch Cohort (N = 37)): 1 (2.7) n (%)
- TEAE Insomnia (Switch Cohort (N = 37)): 1 (2.7) n (%)
- TEAE Irritability (Switch Cohort (N = 37)): 2 (5.4) n (%)
- TEAE Nasopharyngitis (Switch Cohort (N = 37)): 2 (5.4) n (%)
- TEAE Sleep disorder (Switch Cohort (N = 37)): 0 n (%)
- TEAE Somnolence (Switch Cohort (N = 37)): 9 (24.3) n (%)
- TEAE Vomiting (Switch Cohort (N = 37)): 1 (2.7) n (%)
- Total Maximal Chorea Score, Mean (SD) Score (Switch Cohort, Week 1): 11.76 (5.11)
- Total Motor Score, Mean (SD) Change from Baseline (Switch Cohort, Week 1): −2.14 (5.414)
- Total Motor Score, Mean (SD) Score (Switch Cohort, Week 1): 36.35 (18.043)
- Total Maximal Chorea Score, Mean (SD) Score (Switch Cohort, Week 4): 11.86 (5.23)
- Total Motor Score, Mean (SD) Change from Baseline (Switch Cohort, Week 4): −1.85 (8.419)
- Total Motor Score, Mean (SD) Score (Switch Cohort, Week 4): 37.14 (19.516)
- Total Maximal Chorea Score, Mean (SD) Change from Baseline (Switch Cohort, Week 8): −1.9
- Total Maximal Chorea Score, Mean (SD) Score (Switch Cohort, Week 8): 10.10 (5.56)
- Total Motor Score, Mean (SD) Score (Switch Cohort, Week 8): 34.58 (18.268)
- Total Motor Score, Mean (SD) Change from Baseline (Switch Cohort, Week 8, listed as DTBZ): −3.7
- Total Maximal Chorea Score, Mean (SD) Score (Switch Cohort, Week 15): 10.87 (5.99)
- Total Motor Score, Mean (SD) Change from Baseline (Switch Cohort, Week 15): −1.93 (10.910)
- Total Motor Score, Mean (SD) Score (Switch Cohort, Week 15): 35.00 (22.984)
- adverse events of chorea or worsening chorea (Switch Cohort, including first week after conversion from tetrabenazine): no adverse events of chorea or worsening chorea
- subjects with AEs assessed as mild to moderate in intensity (Switch Cohort, of the 21 subjects with AEs): 20 (95.2%) n (%)
- mean change from baseline in swallowing disturbance (questionnaire) (patients switched from tetrabenazine to deutetrabenazine (FIG. 7)): trend toward improvement in swallowing
- overall analysis of the safety scales (UHDRS, SDQ, UPDRS dysarthria, BARS, HADS, ESS, C-SSRS, MoCA) (through Week 28): no increased risk
